According to ChEMBL document CHEMBL1201861, “Genomics of Drug Sensitity in Cancer screening data, Wellcome Trust Sanger Institute”:

Assays:
Assay in all cases: cells
RT-112 = assay type: functional, cell-based, Homo sapiens; conditions: Homo sapiens, RT-112
Description: SANGER: Inhibition of human RT-112 cell growth in a cell viability assay.

NCI-H1693 = assay type: functional, cell-based, Homo sapiens; conditions: Homo sapiens, NCI-H1693;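 further: growth inhibition of the human cell line, read out with a cell viability assay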
Description: SANGER: Inhibition of human NCI-H1693 cell growth in a cell viability assay.

NKM-1 = assay type: functional, cell-based; conditions: Homo sapiens;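 further: growth inhibition of NKM-1 cells, read out with a cell viability assay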
Description: SANGER: Inhibition of human NKM-1 cell growth in a cell viability assay.

NCI-H1581 = assay type: functional, cell-based, Homo sapiens; conditions: Homo sapiens, NCI-H1581;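 further: cell growth inhibition read out by a viability assay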
Description: SANGER: Inhibition of human NCI-H1581 cell growth in a cell viability assay.

KG-1 = assay type: functional, cell-based; conditions: Homo sapiens;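 further: growth inhibition of KG-1 cells, read out by a cell viability assay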
Description: SANGER: Inhibition of human KG-1 cell growth in a cell viability assay.

SJSA-1 = assay type: functional, cell-based, Homo sapiens; conditions: Homo sapiens, SJSA-1;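 further: growth inhibition of human SJSA-1 cells, read out through a cell viability measurement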
Description: SANGER: Inhibition of human SJSA-1 cell growth in a cell viability assay.

SK-MES-1 = assay type: functional, cell-based, Homo sapiens; conditions: Homo sapiens, SK-MES-1;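 further: growth inhibition of human SK-MES-1 cells, read out with a cell viability assay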
Description: SANGER: Inhibition of human SK-MES-1 cell growth in a cell viability assay.

IST-MES1 = assay type: functional, cell-based, Homo sapiens; conditions: Homo sapiens, IST-MES1;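 further: growth inhibition of IST-MES1 cells, measured with a cell viability assay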
Description: SANGER: Inhibition of human IST-MES1 cell growth in a cell viability assay.

ONS-76 = assay type: functional, cell-based, Homo sapiens; conditions: Homo sapiens, ONS-76;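 further: growth inhibition of human ONS-76 cells, read out with a cell viability assay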
Description: SANGER: Inhibition of human ONS-76 cell growth in a cell viability assay.

Panc1005 = assay type: functional, cell-based, Homo sapiens; conditions: Homo sapiens, Panc1005;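 further: growth inhibition of human PANC-10-05 cells, measured by a cell viability assay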
Description: SANGER: Inhibition of human PANC-10-05 cell growth in a cell viability assay.

8505C = assay type: functional, cell-based, Homo sapiens; conditions: Homo sapiens, 8505C
Description: SANGER: Inhibition of human 8505C cell growth in a cell viability assay.

A4-Fuk = assay type: functional, cell-based; conditions: Homo sapiens;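 further: growth inhibition of A4-Fuk cells, read out by a cell viability assay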
Description: SANGER: Inhibition of human A4-Fuk cell growth in a cell viability assay.

NCI-H720 = assay type: functional, cell-based; conditions: Homo sapiens;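 further: growth inhibition of human NCI-H720 cells determined by a cell viability assay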
Description: SANGER: Inhibition of human NCI-H720 cell growth in a cell viability assay.

EW-16 = assay type: functional, cell-based, Homo sapiens; conditions: Homo sapiens, EW-16;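 further: growth inhibition of human EW-16 cells, read out as cell viability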
Description: SANGER: Inhibition of human EW-16 cell growth in a cell viability assay.

LK-2 = assay type: functional, cell-based, Homo sapiens; conditions: Homo sapiens, LK-2;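 further: growth inhibition of LK-2 cells, read out with a viability assay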
Description: SANGER: Inhibition of human LK-2 cell growth in a cell viability assay.

LB771-HNC = assay type: functional, cell-based, Homo sapiens; conditions: Homo sapiens, LB771-HNC;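 further: growth inhibition of LB771-HNC human cells, read out with a cell viability assay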
Description: SANGER: Inhibition of human LB771-HNC cell growth in a cell viability assay.

A2780 = assay type: functional, cell-based, Homo sapiens; conditions: Homo sapiens, A2780;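 further: growth inhibition of A2780 cells, read out with a cell viability assay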
Description: SANGER: Inhibition of human A2780 cell growth in a cell viability assay.

647-V = assay type: functional, cell-based, Homo sapiens; conditions: Homo sapiens, 647-V;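 further: growth inhibition of 647-V cells, read out with a cell viability assay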
Description: SANGER: Inhibition of human 647-V cell growth in a cell viability assay.

Ca9-22 = assay type: functional, cell-based, Homo sapiens; conditions: Homo sapiens, Ca9-22;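 further: growth inhibition of Ca9-22 cells, read out with a cell viability assay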
Description: SANGER: Inhibition of human Ca9-22 cell growth in a cell viability assay.

BCPAP = assay type: functional, cell-based, Homo sapiens; conditions: Homo sapiens, BCPAP;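 further: growth inhibition of BCPAP cells, read out in a cell viability assay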
Description: SANGER: Inhibition of human BCPAP cell growth in a cell viability assay.

GP5d = assay type: functional, cell-based, Homo sapiens; conditions: Homo sapiens, GP5d;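 further: growth inhibition of human GP5d cells, read out with a cell viability assay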
Description: SANGER: Inhibition of human GP5d cell growth in a cell viability assay.

CHP-212 = assay type: functional, cell-based, Homo sapiens; conditions: Homo sapiens, CHP-212
Description: SANGER: Inhibition of human CHP-212 cell growth in a cell viability assay.

SCC-25 = assay type: functional, cell-based, Homo sapiens; conditions: Homo sapiens, SCC-25;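 further: growth inhibition of SCC-25 cells, measured with a cell viability assay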
Description: SANGER: Inhibition of human SCC-25 cell growth in a cell viability assay.

SW1573 = assay type: functional, cell-based, Homo sapiens; conditions: Homo sapiens, SW1573;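 further: growth inhibition of SW1573 cells, read out with a cell viability assay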
Description: SANGER: Inhibition of human SW1573 cell growth in a cell viability assay.

KP-N-YN = assay type: functional, cell-based; conditions: Homo sapiens;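 further: growth inhibition of KP-N-YN cells, read out with a cell viability assay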
Description: SANGER: Inhibition of human KP-N-YN cell growth in a cell viability assay.

NCI-H209 = assay type: functional, cell-based; conditions: Homo sapiens;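 further: growth inhibition of human NCI-H209 cells, measured by a cell viability assay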
Description: SANGER: Inhibition of human NCI-H209 cell growth in a cell viability assay.

SNU-C2B = assay type: functional, cell-based, Homo sapiens; conditions: Homo sapiens, SNU-C2B;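 further: cell viability readout used to measure compound-driven suppression of SNU-C2B cell proliferation, IC50 marking half-maximal growth inhibition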
Description: SANGER: Inhibition of human SNU-C2B cell growth in a cell viability assay.

TGBC1TKB = assay type: functional, cell-based, Homo sapiens; conditions: Homo sapiens, TGBC1TKB;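 further: growth inhibition of TGBC1TKB cells, read out by a cell viability assay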
Description: SANGER: Inhibition of human TGBC1TKB cell growth in a cell viability assay.

HOP-62 = assay type: functional, cell-based, Homo sapiens; conditions: Homo sapiens, HOP-62;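 further: cell growth inhibition determined with a viability assay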
Description: SANGER: Inhibition of human HOP-62 cell growth in a cell viability assay.

NCI-H1793 = assay type: functional, cell-based, Homo sapiens; conditions: Homo sapiens, NCI-H1793;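 further: cell growth inhibition, read out by a cell viability assay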
Description: SANGER: Inhibition of human NCI-H1793 cell growth in a cell viability assay.

KURAMOCHI = assay type: functional, cell-based; conditions: Homo sapiens;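 further: growth inhibition of KURAMOCHI cells, read out with a cell viability assay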
Description: SANGER: Inhibition of human KURAMOCHI cell growth in a cell viability assay.

NCI-H1155 = assay type: functional, cell-based; conditions: Homo sapiens;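 further: cell growth inhibition measured by a viability assay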
Description: SANGER: Inhibition of human NCI-H1155 cell growth in a cell viability assay.

BE-13 = assay type: functional, cell-based; conditions: Homo sapiens;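 further: growth inhibition of human BE-13 cells, measured with a cell viability assay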
Description: SANGER: Inhibition of human BE-13 cell growth in a cell viability assay.

SNU-449 = assay type: functional, cell-based, Homo sapiens; conditions: Homo sapiens, SNU-449
Description: SANGER: Inhibition of human SNU-449 cell growth in a cell viability assay.

MKN-7 = assay type: functional, cell-based, Homo sapiens; conditions: Homo sapiens, MKN-7;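 further: growth inhibition of MKN-7 cells, read out with a cell viability assay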
Description: SANGER: Inhibition of human MKN7 cell growth in a cell viability assay.

AGS = assay type: functional, cell-based, Homo sapiens; conditions: Homo sapiens, AGS;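 further: growth inhibition of AGS cells, determined with a cell viability assay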
Description: SANGER: Inhibition of human AGS cell growth in a cell viability assay.

GAMG = assay type: functional, cell-based, Homo sapiens; conditions: Homo sapiens, GAMG;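 further: cell growth inhibition measured by a viability assay in the GAMG human cell line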
Description: SANGER: Inhibition of human GAMG cell growth in a cell viability assay.

NB14 = assay type: functional, cell-based; conditions: Homo sapiens;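 further: growth inhibition of NB14 cells measured with a cell viability assay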
Description: SANGER: Inhibition of human NB14 cell growth in a cell viability assay.

UMC-11 = assay type: functional, cell-based, Homo sapiens; conditions: Homo sapiens, UMC-11;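 further: growth inhibition of UMC-11 cells, read out with a cell viability assay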
Description: SANGER: Inhibition of human UMC-11 cell growth in a cell viability assay.

NCI-H28 = assay type: functional, cell-based, Homo sapiens; conditions: Homo sapiens, NCI-H28;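 further: growth inhibition of human NCI-H28 cells, read out as cell viability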
Description: SANGER: Inhibition of human NCI-H28 cell growth in a cell viability assay.

GI-ME-N = assay type: functional, cell-based, Homo sapiens; conditions: Homo sapiens, GI-ME-N;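 further: growth inhibition of human GI-ME-N cells, read out with a cell viability assay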
Description: SANGER: Inhibition of human GI-ME-N cell growth in a cell viability assay.

SK-OV-3 = assay type: functional, cell-based, Homo sapiens; conditions: Homo sapiens, SK-OV-3;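 further: growth inhibition of SK-OV-3 human cells, read out with a cell viability assay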
Description: SANGER: Inhibition of human SK-OV-3 cell growth in a cell viability assay.

D283 Med = assay type: functional, cell-based, Homo sapiens; conditions: Homo sapiens, D283 Med
Description: SANGER: Inhibition of human D-283MED cell growth in a cell viability assay.

8-MG-BA = assay type: functional, cell-based, Homo sapiens; conditions: Homo sapiens, 8-MG-BA;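 further: growth inhibition of 8-MG-BA cells, read out with a cell viability assay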
Description: SANGER: Inhibition of human 8-MG-BA cell growth in a cell viability assay.

LB2518-MEL = assay type: functional, cell-based, Homo sapiens; conditions: Homo sapiens, LB2518-MEL;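 further: growth inhibition of human LB2518-MEL cells, measured with a cell viability assay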
Description: SANGER: Inhibition of human LB2518-MEL cell growth in a cell viability assay.

HT-1080 = assay type: functional, cell-based, Homo sapiens; conditions: Homo sapiens, HT-1080
Description: SANGER: Inhibition of human HT-1080 cell growth in a cell viability assay.

EGI-1 = assay type: functional, cell-based, Homo sapiens; conditions: Homo sapiens, EGI-1;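 further: cell viability readout used to gauge growth inhibition of EGI-1 cells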
Description: SANGER: Inhibition of human EGI-1 cell growth in a cell viability assay.

HAL-01 = assay type: functional, cell-based; conditions: Homo sapiens;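 further: growth inhibition of human HAL-01 cells, read out with a cell viability assay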
Description: SANGER: Inhibition of human HAL-01 cell growth in a cell viability assay.

LAN-6 = assay type: functional, cell-based, Homo sapiens; conditions: Homo sapiens, LAN-6;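 further: growth inhibition of LAN-6 cells, determined with a cell viability assay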
Description: SANGER: Inhibition of human LAN-6 cell growth in a cell viability assay.

NCI-H358 = assay type: functional, cell-based, Homo sapiens; conditions: Homo sapiens, NCI-H358;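 further: growth inhibition of NCI-H358 human cells, read out with a cell viability assay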
Description: SANGER: Inhibition of human NCI-H358 cell growth in a cell viability assay.

CC(=O)O[C@@]12CO[C@@H]1C[C@H](O)[C@@]1(C)C(=O)[C@H](O)C3=C(C)[C@@H](OC(=O)[C@H](O)[C@@H](NC(=O)OC(C)(C)C)c4ccccc4)C[C@@](O)([C@@H](OC(=O)c4ccccc4)[C@H]21)C3(C)C [DOCETAXEL]
IC50 (RT-112): 1.19 nM | IC50 (NCI-H1693): > 10 nM | IC50 (NKM-1): > 10 nM | IC50 (NCI-H1581): 2.17 nM | IC50 (KG-1): > 10 nM | IC50 (SJSA-1): 0.615 nM | IC50 (SK-MES-1): 2.33 nM | IC50 (IST-MES1): 8.4 nM | IC50 (ONS-76): 3.22 nM | IC50 (Panc1005): > 10 nM | IC50 (8505C): 0.854 nM | IC50 (A4-Fuk): 3.9 nM | IC50 (NCI-H720): 0.58 nM | IC50 (EW-16): 1.35 nM | IC50 (LK-2): 1.21 nM | IC50 (LB771-HNC): > 10 nM | IC50 (A2780): 3.35 nM | IC50 (647-V): 1.84 nM | IC50 (Ca9-22): 0.423 nM | IC50 (BCPAP): 0.947 nM | IC50 (GP5d): 2.96 nM | IC50 (CHP-212): 0.73 nM | IC50 (SCC-25): 0.68 nM | IC50 (SW1573): 5.54 nM | IC50 (KP-N-YN): > 10 nM | IC50 (NCI-H209): 2.86 nM | IC50 (SNU-C2B): > 10 nM | IC50 (TGBC1TKB): 9.1 nM | IC50 (HOP-62): > 10 nM | IC50 (NCI-H1793): > 10 nM | IC50 (KURAMOCHI): > 10 nM | IC50 (NCI-H1155): > 10 nM | IC50 (BE-13): 3.93 nM | IC50 (SNU-449): > 10 nM | IC50 (MKN-7): > 10 nM | IC50 (AGS): 3.28 nM | IC50 (GAMG): 0.416 nM | IC50 (NB14): 0.26 nM | IC50 (UMC-11): > 10 nM | IC50 (NCI-H28): 3.34 nM | IC50 (GI-ME-N): 3.58 nM | IC50 (SK-OV-3): > 10 nM | IC50 (D283 Med): 6.24 nM | IC50 (8-MG-BA): 0.589 nM | IC50 (LB2518-MEL): > 10 nM | IC50 (HT-1080): 0.501 nM | IC50 (EGI-1): 3.62 nM | IC50 (HAL-01): > 10 nM | IC50 (LAN-6): > 10 nM | IC50 (NCI-H358): 7.58 nM
